The values that follow are results of earlier work, collected in patent US20110077395A1, “INHIBITORS OF 11-BETA HYDROXYSTEROID DEHYDROGENASE TYPE I” (Bristol-Myers Squibb Company, priority 2005, published 2011).

This series deals with hepatic glucose production. Conditions: mildly overweight individuals with type 2 diabetes, seven days, versus placebo.

As to `CC1(C)[C@@H](OC(=O)CCC(=O)O)CC[C@]2(C)[C@H]3C(=O)C=C4[C@@H]5C[C@@](C)(C(=O)O)CC[C@]5(C)CC[C@@]4(C)[C@]3(C)CC[C@@H]12` [carbenoxolone], the hepatic glucose production result was “decrease in hepatic glucose production”.
